From patent publication US20210010086A1, “MNK BIOMARKERS AND USES THEREOF” (eFFECTOR Therapeutics, Inc., priority 2015, published 2021)

Experiments:
[1] = system: eIF4E phosphorylation (p-eIF4E); experiment: Immunoblotting of eIF4E phosphorylation in TMD8 cells; format: cell-based, human
Method: (§1) TMD8 human diffuse large B-cell lymphoma line was cultured in RPMI media supplemented with penicillin G (100 U/ml), streptomycin (100 μg/ml), 10% FBS in a humidified atmosphere of 5% CO2 maintained at 37° C. • (b) Drug Treatment
(§2) TMD8 cells were seeded prior to drug treatment. The following day, cells were treated with either DMSO (vehicle control) or MNK inhibitor (Compound 107) at the appropriate dose and time. • (c) Immunoblotting
(§3) Cells were spun down and washed with PBS and lysed in 1× RIPA buffer (Thermo Fisher) for 15 min at 4° C. Lysates were sonicated briefly and clarified by centrifugation for 15 min at 14,000 rpm and supernatants were collected. Protein concentration in the soluble fraction was determined by BCA protein assay (Thermo Scientific). 20 μg of protein were resolved on 4-20% Bis-Tris gradient gel (Invitrogen) and transferred to nitrocellulose membrane. The resulting blots were blocked for 1 hr at room temperature with Odyssey blocking solution (LI-COR) and then incubated with anti-phospho-eIF4E (Millipore), anti-eIF4E (Santa Cruz), anti-CCND3 (Cell Signaling) or anti-IRF7 (Cell Signaling) at 4° C. overnight. I3-actin was used as a loading control. […] The blots were then washed and scanned, specific proteins were detected by using the LI-COR Odyssey infrared imager. • (d) Non-Radioactive Nascent Protein Synthesis Assay

[2] = system: Cyclin D3; experiment: Immunoblotting of cyclin D3 protein in TMD8 cells; format: cell-based, human; conditions: increasing concentrations, 48 hours
Method: as §1, §2, §3

[3] = system: IRF7; experiment: Immunoblotting of IRF7 protein in TMD8 cells; format: cell-based, human; conditions: 48 hours, FIG. 6
Method: as §1, §2, §3

[4] = system: TMD8 cells; experiment: Non-radioactive nascent protein synthesis assay (AHA incorporation); format: cell-based, human
Method: as §1, §2
Newly synthesized proteins were detected by using the CLICK-IT Biotin Protein Analysis Detection Kit (Life Technologies; C33372) according to the manufacturer's protocol. Briefly, cells were rinsed with PBS once and incubated in methionine-free media for 30 min in the presence of the compound before being pulsed with the nonradioactive azide-containing methionine analogue AHA for 2 hrs. Cell lysates were then collected for the labeling reactions. The newly synthesized, AHA-incorporated protein was crosslinked to alkyne-derivatized biotin by a copper (I)—catalyzed cycloaddition (CLICK-IT) according to the manufacturer's instructions (Life Technologies). Following the labeling reactions, proteins were precipitated and quantified and subsequently subjected to immunoblotting analysis. Anti-streptavidin-HRP was used to detect newly synthesized proteins that contained biotin-conjugated AHA. Amount of newly synthesized proteins can be quantified by densitometry. • (e) Polysome Profiling

[5] = system: TMD8 cells; experiment: Polysome profiling; format: cell-based, human; conditions: 0.3 or 10 μM, 3 or 48 hours
Method: TMD8 human diffuse large B-cell lymphoma line was cultured in RPMI media supplemented with penicillin G (100 U/ml), streptomycin (100 μg/ml), 10% FBS in a humidified atmosphere of 5% CO2 maintained at 37° C. • (b) Drug Treatment TMD8 cells were seeded prior to drug treatment. The following day, cells were treated with either DMSO (vehicle control) or MNK inhibitor (Compound 107) at the appropriate dose and time. • (c) Immunoblotting Cells were washed with cold PBS supplemented with cycloheximide and lysed with 1× mammalian cell lysis buffer for 10 minutes on ice. Lysates were clarified by centrifugation for 10 minutes at 14,000 rpm and supernatants were collected. The clarified lysate was loaded onto a 10-50% sucrose gradient containing 0.1 mg/ml cycloheximide (gradients were prepared using a BioComp Gradient Station) and centrifuged at 40,000 rpm for 2 hours at 4° C. using a SW40Ti rotor in a BECKMAN COULTER Optima L8-[…] ultra centrifuge. Polysome fractions were isolated using the BioComp Gradient Station. • (f) Ribosome Profiling

[6] = system: TMD8 cells; experiment: Ribosome profiling (translational rate RPF, translational efficiency, mRNA); format: cell-based, human; conditions: for # Genes Down Regulated / # Genes Up Regulated: 10 μM
Method: as §1, §2
Ribosomal profiling allows for measurement of changes in transcription and translation on a genome-wide basis accompanying inhibition of MNK with Compound 107 treatment of human DLBCL cells. Ribosome profiles of the Compound 107 treated TMD8 cells (about 3×10^6 cells/10 cm plate were harvested for ribosome profiling following drug treatment) were prepared and analyzed for changes in translational efficiencies with respect to potential disease-associated cellular changes accompanying MNK inhibition.
Briefly, cells were washed with cold PBS supplemented with cycloheximide and lysed with 1× mammalian cell lysis buffer for 10 minutes on ice. Lysates were clarified by centrifugation for 10 minutes at 14,000 rpm and supernatants were collected. Cell lysates were processed to generate ribosomal protected fragments and total mRNA according to the instructions included with the ARTSEQ Ribosome Profiling Kit (Illumina). Sequencing of total RNA (RNA) and of ribosome-protected fragments of RNA (RPF) was carried out using RNA-Seq methodology according to the manufacturer's instructions (Illumina). To analyze the ribosomal profiles, RNA-Seq reads were processed with tools from the FASTX-Toolkit (fastq quality trimmer, fastx clipper and fastx trimmer). Unprocessed and processed reads were evaluated for a variety of quality measures using FastQC. Processed reads were mapped to the human genome using Tophat. Gene-by-gene assessment of the number of fragments strictly and uniquely mapping to the coding region of each gene was conducted using HTSeq-count, a component of the HTSeq package. Differential analyses of Compound 107 treatment of TMD8 cells were carried out with the software packages DESeq for transcription (RNA counts) and translational rate (RPF counts) and BABEL (Olshen 2013) for translational efficiency based upon ribosomal occupancy (RPF counts) as a function of RNA level (RNA counts). The Log2 fold change in translational efficiency (TE) between drug treated and control is determined from the Log2 fold change difference in RPF and RNA values (drug treated versus to control).
Genes with low counts in either RPF or RNA were excluded from differential analyses. Biological process classification was done using Gene Ontology term analysis.
TMD8 cells were treated with DMSO or Compound 107 (0.3 or 10 μM) and cell lysates from two biological replicates were collected after 3 or 48 hours after treatment. The cell lysates were divided into two fractions and processed to quantitate the drug effects on the total mRNA (transcriptome) or RNase digested to generate the ribosome protected fragments (translatome). The raw sequencing counts were analyzed using DESeq analysis to determine differential expression or differential ribosome occupancy between DMSO and Compound 107 treatment and are reported as the loge fold change. Quantitation of the ribosome protected fragments (RPF) directly reflects the extent that a given transcript is bound by ribosomes and is a measure of the drug effects on translational rate.
Loge fold change in TE values are calculated from the difference in loge fold change in translational rate (RPF) between drug treated and control, and the loge fold change in total mRNA (drug treated vs. control). Evaluation of TE results in normalizing translation changes to transcript abundance. The statistical significance for TE values was determined using Babel software which was developed for assessing the significance of changes in translational regulation between conditions.

[7] = system: TMD8 cells; experiment: Proliferation of TMD8 cells; format: cell-based; conditions: Homo sapiens
[8] = system: TMD8 cells; experiment: Cell survival of TMD8 cells; format: cell-based, human; conditions: increasing concentrations, data not shown
[9] = system: LAG-3; experiment: LAG-3 protein expression in TMD8 cells; format: cell-based, human; conditions: data not shown
[10] = system: activated T cells; experiment: Cell surface PD-1 and LAG-3 on CD3/CD28 activated T cells; format: cell-based
[11] = system: TMD8 cells; experiment: Cytokine/chemokine protein expression in TMD8 cells; format: cell-based, human
[12] = system: CD3/CD28 activated T cells; experiment: Cytokines/chemokines in CD3/CD28 activated T cells; format: cell-based
[13] = system: eIF4F complex; experiment: eIF4G bound to eIF4E (eIF4F complex) in TMD8 cells; format: cell-based, human; conditions: increased concentrations
[14] = 3 hour, Translational Efficiency
[15] = 3 hour, Translational Rate (RPF)
[16] = 48 hour, Translational Efficiency
[17] = 48 hour, Translational Rate (RPF)

Q: `Cc1cc(Nc2cc(N)ncn2)c(=O)n2c1C(=O)NC21CCCCC1.Cl` [Compound 107] was tested. Which EC50 ([1]; Homo sapiens, TMD8 cell line, study report ECB-003, read-out: EC50 for inhibition of p-eIF4E) did it give?
A: 9.7 nM

Q: What about the “inhibition of eIF4E phosphorylation (western blot)” value ([1]; TMD8 cells, 0.3-10 μM, 3 or 48 hours) of the same molecule?
A: essentially complete inhibition

Q: And the “cyclin D3 protein level” value [2]?
A: reduction in cyclin D3

Q: And the “IRF7 at the protein level” value [3]?
A: decreased

Q: And the “global protein synthesis rates” value ([4]; 10 μM for 48 hours)?
A: modest reduction

Q: And the global protein synthesis ([4]; 0.3 or 10 μM for 3 hours and 0.3 μM for 48 hours)?
A: no impact

Q: What about the global protein synthesis ([4]; 3 hour treatment duration) of the same molecule?
A: negligible effects

Q: And the “polysome to monosome distribution” value [5]?
A: not observed to alter

Q: And the “# Genes Down Regulated” value [6, 14]?
A: 24

Q: What about the “# Genes Up Regulated” value [6, 14] of the same molecule?
A: 27

Q: And the “# Genes Down Regulated” value [6, 15]?
A: 58

Q: What about the “# Genes Up Regulated” value [6, 15] of the same molecule?
A: 64

Q: And the “# Genes Down Regulated” value [6, 16]?
A: 31

Q: And the “# Genes Up Regulated” value [6, 16]?
A: 15

Q: And the “# Genes Down Regulated” value [6, 17]?
A: 123

Q: What about the “# Genes Up Regulated” value [6, 17] of the same molecule?
A: 92

Q: What about the “number of the 123 MNK-sensitive genes also down regulated at the mRNA expression level” value ([6]; 48 hours, log2≤−0.75, p-value <0.01) of the same molecule?
A: 51

Q: What about the “number of genes selectively down regulated at the translational level in the absence of substantial transcript changes” value ([6]; 48 hours, log2≤−0.75, p-value <0.05) of the same molecule?
A: 27

Q: What about the “translational efficiency of 3 hour gene set at 300 nM compared with 10 μM” value ([6]; TMD8 cells, 3 hours, FIG. 7) of the same molecule?
A: equal or lesser extent

Q: And the “PD-1 translationally down regulated” value ([6]; TMD8 cells, p-value=0.033, below significance cutoff)?
A: ~2 fold

Q: What about the EC50 [7] of the same molecule?
A: 3300 nM

Q: What about the cell survival [8] of the same molecule?
A: promoted cell survival

Q: What about the “expression of LAG-3 at the protein level” value [9] of the same molecule?
A: selective decrease

Q: What about the “cell surface levels of the immune checkpoint inhibitors PD-1 and LAG-3” value ([10]; CD3/CD28 activated T cells) of the same molecule?
A: reduction

Q: And the “levels of PD-1 on the surface of activated T cells” value ([10]; data not shown)?
A: reduced

Q: What about the “cytokines evaluated (TNFα, IL6, IL10)” value ([11]; DLBCL cell line TMD8) of the same molecule?
A: modulation of one or more of the cytokines evaluated

Q: And the “cytokine/chemokine biomarkers (CXCL10, IL6 and IL10) at the protein expression level” value ([11]; data not shown)?
A: down regulated

Q: And the “select cytokines/chemokines (TNFα, IL10, CXCL10)” value [12]?
A: reduction

Q: And the “eIF4G bound to eIF4E” value [13]?
A: decrease
